Data from patent US20130165464A1, “HETEROARYLS AND USES THEREOF” (MILLENNIUM PHARMACEUTICALS, INC., priority 2011, published 2013).

Target: T1, VPS34 (Homo sapiens, UniProt Q8NEB9)
T1 construct: GST (N); host or cells: SF9 insect cells (baculovirus)
Experiment: Human VPS34 enzyme assay (Adapta TR-FRET)
Type: biochemical
Conditions: for inhibition at 1.11 µM: 1 h, at a 1.11 μM concentration, read-out: VPS34 Percent Inhibition
Protocol: VPS34 (accession number GB:BCO33004) was cloned into pDEST20-Thombin as N-terminal GST tagged fusion proteins using the Gateway system (Invitrogen, catalog#11804-013). The sequences were verified before recombinant protein expression using the Baculovirus Expression System with Gateway® Technology.
For expression VPS34 was infected at 1MOI in SF9 cells and harvested 72 hours post infection.
For purification, VPS34 is purified by Glutathione Sepharose 4 Fast Flow (GE Healthcare #17-5132-03) followed by HiTrap Q (GE Healthcare #17-1153-01).
Human VPS34 Enzyme Assay Method
100 nL compounds in DMSO are added to wells of a 384 well microtitre plate (Greiner 780076). At room temperature: 5 ul VPS34 reaction buffer (Invitrogen Assay Buffer Q (diluted 1 in 5 with nanopure water) plus 2 mM DTT and 2 mM MnCl2) containing ATP (20 uM, Promega) and 200 uM PI-PS substrate (Invitrogen PV5122) is added followed immediately by 5 ul VPS34 reaction buffer (as above) containing VPS34 (5 nM, Millennium Protein Sciences Group) and the mixture is incubated with shaking at room temperature for 1 hour. Then 5 ul VPS34 stop-detect mix (as per Invitrogen Adapta Assay kit (PV5009) instructions (contains kinase quench buffer, TR-FRET buffer, Adapta Eu anti-ADP antibody and Alexa Fluor 647 ADP tracer)) is added to quench the reaction. The plates are then incubated for 30 minutes at room temperature with shaking and then read on a BMG PheraStar Plus reader.
For the assay methods described above, test compound percent inhibition, at various concentrations, is calculated relative to control (DMSO and EDTA) treated samples. Compound concentration versus percent inhibition curves are fitted to generate IC50 values. One skilled in the art will appreciate that the values generated either as percentage inhibition at a single concentration or IC50 values are subject to experimental variation.

T1 sequence (Q8NEB9 whole entry): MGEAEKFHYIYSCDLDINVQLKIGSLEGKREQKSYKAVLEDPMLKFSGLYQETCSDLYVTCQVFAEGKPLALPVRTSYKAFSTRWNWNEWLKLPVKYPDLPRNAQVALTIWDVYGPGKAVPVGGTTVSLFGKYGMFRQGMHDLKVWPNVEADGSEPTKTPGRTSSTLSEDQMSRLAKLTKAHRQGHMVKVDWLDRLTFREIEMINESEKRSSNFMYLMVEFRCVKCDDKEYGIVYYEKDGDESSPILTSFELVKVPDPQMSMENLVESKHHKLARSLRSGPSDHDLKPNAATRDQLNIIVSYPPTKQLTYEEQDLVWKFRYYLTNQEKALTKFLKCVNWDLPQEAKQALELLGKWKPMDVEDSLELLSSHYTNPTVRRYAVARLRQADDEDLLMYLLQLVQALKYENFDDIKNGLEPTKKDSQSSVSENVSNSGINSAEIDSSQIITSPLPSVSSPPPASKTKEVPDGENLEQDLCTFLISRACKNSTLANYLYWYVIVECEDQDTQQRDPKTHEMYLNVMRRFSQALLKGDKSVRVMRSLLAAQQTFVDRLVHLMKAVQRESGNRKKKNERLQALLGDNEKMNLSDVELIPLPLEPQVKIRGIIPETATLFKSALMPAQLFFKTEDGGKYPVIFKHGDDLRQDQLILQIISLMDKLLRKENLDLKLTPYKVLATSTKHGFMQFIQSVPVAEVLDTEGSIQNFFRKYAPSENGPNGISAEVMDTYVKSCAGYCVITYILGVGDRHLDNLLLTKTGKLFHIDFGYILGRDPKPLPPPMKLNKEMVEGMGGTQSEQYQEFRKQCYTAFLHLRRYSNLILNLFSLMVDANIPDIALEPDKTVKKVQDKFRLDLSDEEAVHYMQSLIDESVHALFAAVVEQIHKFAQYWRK

`Cc1cnc(NC(=O)C(C)C)cc1-n1cc(C(N)=O)c(-c2ccccc2Cl)c1` [I-33, 4-(2-chlorophenyl)-1-[2-(isobutyrylamino)-5-methylpyridin-4-yl]-1H-pyrrole-3-carboxamide] showed an IC50 of 1000 to 5000 nM and an inhibition at 1.11 µM of 42%.
In the case of `CC(=O)Nc1cc(-n2cc(-c3nc[nH]n3)c(-c3ccccc3C)n2)c(C)cn1` [I-69, N-{5-methyl-4-[3-(2-methylphenyl)-4-(1H-1,2,4-triazol-3-yl)-1H-pyrazol-1-yl]pyridin-2-yl}acetamide], the inhibition at 1.11 µM is reported as > 99%.
For `CC(=O)Nc1cc(-n2cc(C(N)=O)c(-c3ccccc3Cl)n2)ccn1` [I-8, 1-(2-acetamidopyridin-4-yl)-3-(2-chlorophenyl)-1H-pyrazole-4-carboxamide], the inhibition at 1.11 µM was > 99%.
For `CC(=O)Nc1cc(-n2cc(-c3nc[nH]n3)c(-c3ccccc3Cl)n2)c(Br)cn1` [I-18, N-{5-bromo-4-[3-(2-chlorophenyl)-4-(1H-1,2,4-triazol-3-yl)-1H-pyrazol-1-yl]pyridin-2-yl}acetamide], the IC50 was 150 to 1000 nM and the inhibition at 1.11 µM was 89%.
`COc1ccccc1-c1nn(-c2cc(NC(C)=O)ncc2C)cc1-c1nc[nH]n1` [I-49, N-{4-[3-(2-methoxyphenyl)-4-(1H-1,2,4-triazol-3-yl)-1H-pyrazol-1-yl]-5-methylpyridin-2-yl}acetamide] showed an IC50 of 150 to 1000 nM and an inhibition at 1.11 µM of 56%.
`Cc1cnc(NC(=O)C2CC2)cc1-n1cc(-c2ncc[nH]2)c(-c2ccccc2Cl)n1` [I-60, N-{4-[3-(2-chlorophenyl)-4-(1H-imidazol-2-yl)-1H-pyrazol-1-yl]-5-methylpyridin-2-yl}cyclopropanecarboxamide] was tested, and the IC50 was < 50 nM and the inhibition at 1.11 µM was > 99%.
In the case of `O=C(Nc1cc(-n2cc(-c3nc[nH]n3)c(-c3ccccc3Cl)n2)ccn1)C1CC1` [I-23, N-{4-[3-(2-chlorophenyl)-4-(1H-1,2,4-triazol-3-yl)-1H-pyrazol-1-yl]pyridin-2-yl}cyclopropanecarboxamide], the IC50 is reported as < 50 nM and the inhibition at 1.11 µM is reported as > 99%.
With `O=C(Nc1cc(-n2cc(-c3nc[nH]n3)c(-c3ccccc3Cl)n2)c(F)cn1)C1CC1` [I-56, N-{4-[3-(2-chlorophenyl)-4-(1H-1,2,4-triazol-3-yl)-1H-pyrazol-1-yl]-5-fluoropyridin-2-yl}cyclopropanecarboxamide] the IC50 was < 50 nM and the inhibition at 1.11 µM was > 99%.
In the case of `COCCC(=O)Nc1cc(-n2cc(C(N)=O)c(-c3ccccc3Cl)c2)c(C)cn1` [I-79, 4-(2-chlorophenyl)-1-{2-[(3-methoxypropanoyl)amino]-5-methylpyridin-4-yl}-1H-pyrrole-3-carboxamide], the inhibition at 1.11 µM is reported as > 99%.
Molecule `CC(=O)Nc1cc(-n2cc(C(N)=O)c(-c3cc(CN4CCCC4)ccc3Cl)c2)c(C)cn1` [I-77, 1-(2-acetamido-5-methylpyridin-4-yl)-4-[2-chloro-5-(pyrrolidin-1-ylmethyl)phenyl]-1H-pyrrole-3-carboxamide] has an inhibition at 1.11 µM of 79%.
For `CC(=O)Nc1cc(-n2cc(-c3ccccc3Cl)c(C(N)=O)n2)ccn1` [I-20, 1-(2-acetamidopyridin-4-yl)-4-(2-chlorophenyl)-1H-pyrazole-3-carboxamide], the IC50 was 1000 to 5000 nM and the inhibition at 1.11 µM was 29%.
In the case of `CC(=O)Nc1cc(-n2cc(C(N)=O)c(-c3ccccc3S(C)(=O)=O)c2)ccn1` [I-47, 1-(2-acetamidopyridin-4-yl)-4-[2-(methylsulfonyl)phenyl]-1H-pyrrole-3-carboxamide], the IC50 is reported as 150 to 1000 nM and the inhibition at 1.11 µM is reported as 64%.
With `CC(=O)Nc1cc(-n2cc(-c3nnc[nH]3)c(-c3ccccc3Cl)c2)ccn1` [I-22, N-{4-[3-(2-chlorophenyl)-4-(1H-1,2,4-triazol-3-yl)-1H-pyrrol-1-yl]pyridin-2-yl}acetamide] the IC50 was < 50 nM and the inhibition at 1.11 µM was > 99%.
`CC(=O)Nc1cc(-n2cc(-c3nc[nH]n3)c(-c3ccccc3Cl)n2)c(C)cn1` [I-5, N-{4-[3-(2-chlorophenyl)-4-(1H-1,2,4-triazol-3-yl)-1H-pyrazol-1-yl]-5-methylpyridin-2-yl}acetamide] was tested, and the IC50 was < 50 nM and the inhibition at 1.11 µM was > 99%.
`CC(=O)Nc1cc(-n2cc(-c3nc[nH]n3)c(-c3cc(CN(C)C)ccc3Cl)n2)c(C)cn1` [I-42, N-{4-[3-{2-chloro-5-[(dimethylamino)methyl]phenyl}-4-(1H-1,2,4-triazol-3-yl)-1H-pyrazol-1-yl]-5-methylpyridin-2-yl}acetamide] was tested, and the IC50 was < 50 nM and the inhibition at 1.11 µM was > 99%.
With `CC(=O)Nc1cc(-n2cc(C(N)=O)c(-c3ccccc3Cl)n2)c(C)cn1` [I-11, 1-(2-acetamido-5-methylpyridin-4-yl)-3-(2-chlorophenyl)-1H-pyrazole-4-carboxamide] the IC50 was 150 to 1000 nM and the inhibition at 1.11 µM was 96%.
Work on `Cc1cnc(NC(=O)C2CC2)cc1-n1cc(C(N)=O)c(-c2ccccc2Cl)n1` [I-34, 3-(2-chlorophenyl)-1-{2-[(cyclopropylcarbonyl)amino]-5-methylpyridin-4-yl}-1H-pyrazole-4-carboxamide] yielded an IC50 of 150 to 1000 nM and an inhibition at 1.11 µM of 92%.
`CC(=O)Nc1cc(-n2cc(-c3ccn[nH]3)c(-c3ccccc3Cl)n2)ccn1` [I-25, N-{4-[3′-(2-chlorophenyl)-1H,1′H-3,4′-bipyrazol-1′-yl]pyridin-2-yl}acetamide] was tested, and the IC50 was < 50 nM and the inhibition at 1.11 µM was > 99%.
In the case of `COC(=O)Nc1cc(-n2cc(-c3nc[nH]n3)c(-c3cc(CN4CCCC4)ccc3Cl)n2)c(C)cn1` [I-61, methyl (4-{3-[2-chloro-5-(pyrrolidin-1-ylmethyl)phenyl]-4-(1H-1,2,4-triazol-3-yl)-1H-pyrazol-1-yl}-5-methylpyridin-2-yl)carbamate], the inhibition at 1.11 µM is reported as > 99%.
`Cc1cnc(NC(=O)OCCF)cc1-n1cc(C(N)=O)c(-c2ccccc2Cl)c1` [I-83, 2-fluoroethyl {4-[3-carbamoyl-4-(2-chlorophenyl)-1H-pyrrol-1-yl]-5-methylpyridin-2-yl}carbamate] was tested, and the inhibition at 1.11 µM was > 99%.
`COC(=O)Nc1cc(-n2cc(C(N)=O)c(-c3cc(CN4CCCC4)ccc3Cl)c2)c(C)cn1` [I-80, methyl (4-{3-carbamoyl-4-[2-chloro-5-(pyrrolidin-1-ylmethyl)phenyl]-1H-pyrrol-1-yl}-5-methylpyridin-2-yl)carbamate] was tested, and the inhibition at 1.11 µM was > 99%.
For `COc1ccc(-c2nn(-c3cc(NC(C)=O)ncc3C)cc2-c2nc[nH]n2)c(Cl)c1` [I-35, N-{4-[3-(2-chloro-4-methoxyphenyl)-4-(1H-1,2,4-triazol-3-yl)-1H-pyrazol-1-yl]-5-methylpyridin-2-yl}acetamide], the IC50 was < 50 nM and the inhibition at 1.11 µM was > 99%.
For `Cc1cnc(NC(=O)C2CC2)cc1-n1cc(-c2nc[nH]n2)c(-c2ccc(Cl)cc2Cl)n1` [I-67, N-{4-[3-(2,4-dichlorophenyl)-4-(1H-1,2,4-triazol-3-yl)-1H-pyrazol-1-yl]-5-methylpyridin-2-yl}cyclopropanecarboxamide], the inhibition at 1.11 µM was > 99%.
For `COC(=O)Nc1cc(-n2cc(C(N)=O)c(-c3ccccc3Cl)c2)c(C)cn1` [I-36, methyl {4-[3-carbamoyl-4-(2-chlorophenyl)-1H-pyrrol-1-yl]-5-methylpyridin-2-yl}carbamate], the IC50 was < 50 nM and the inhibition at 1.11 µM was > 99%.
With `CC(=O)Nc1cc(-n2cc(-c3nc[nH]n3)c(-c3ccccc3S(C)(=O)=O)c2)ccn1` [I-38, N-(4-{3-[2-(methylsulfonyl)phenyl]-4-(1H-1,2,4-triazol-3-yl)-1H-pyrrol-1-yl}pyridin-2-yl)acetamide] the inhibition at 1.11 µM was > 99%.
`CC(=O)Nc1cc(-n2cc(C(N)=O)c(-c3ccccc3Cl)c2)ccn1` [I-2, 1-(2-acetamidopyridin-4-yl)-4-(2-chlorophenyl)-1H-pyrrole-3-carboxamide] was tested, and the IC50 was < 50 nM and the inhibition at 1.11 µM was > 99%.
With `CCN(CC)Cc1ccc(Cl)c(-c2nn(-c3cc(NC(C)=O)ncc3C)cc2-c2nc[nH]n2)c1` [I-58, N-{4-[3-{2-chloro-5-[(diethylamino)methyl]phenyl}-4-(1H-1,2,4-triazol-3-yl)-1H-pyrazol-1-yl]-5-methylpyridin-2-yl}acetamide] the inhibition at 1.11 µM was > 99%.
In the case of `Cc1cnc(NC(=O)OC2CCCCC2)cc1-n1cc(-c2nc[nH]n2)c(-c2ccccc2Cl)c1` [I-73, cyclohexyl {4-[3-(2-chlorophenyl)-4-(1H-1,2,4-triazol-3-yl)-1H-pyrrol-1-yl]-5-methylpyridin-2-yl}carbamate], the inhibition at 1.11 µM is reported as > 99%.
For `COCCC(=O)Nc1cc(-n2cc(-c3nc[nH]n3)c(-c3ccccc3Cl)c2)c(C)cn1` [I-74, N-{4-[3-(2-chlorophenyl)-4-(1H-1,2,4-triazol-3-yl)-1H-pyrrol-1-yl]-5-methylpyridin-2-yl}-3-methoxypropanamide], the inhibition at 1.11 µM was > 99%.
`CC(=O)Nc1cc(-n2cc(C(N)=O)c(-c3ccc(Cl)cc3Cl)n2)ccn1` [I-13, 1-(2-acetamidopyridin-4-yl)-3-(2,4-dichlorophenyl)-1H-pyrazole-4-carboxamide] was tested, and the inhibition at 1.11 µM was > 99%.
With `COC(=O)Nc1cc(-n2cc(-c3nc[nH]n3)c(-c3ccccc3Cl)c2)c(C)cn1` [I-55, methyl {4-[3-(2-chlorophenyl)-4-(1H-1,2,4-triazol-3-yl)-1H-pyrrol-1-yl]-5-methylpyridin-2-yl}carbamate] the IC50 was < 50 nM and the inhibition at 1.11 µM was > 99%.
